Measurements from US20090028816A1, “Treatment of depression, psychosis, and anxiety” (priority 2007, published 2009).

Assay: Range-finding tolerability and efficacy studies in neurological models
Type: in vivo
Details: intraperitoneally at dose levels up to 15 mg/kg twice a day (bid) for multiple days
Procedure: Ibudilast is obtained as a pure powder from Sigma (St. Louis, Mo.) or Haorui Pharma (Edison, N.J.) and prepared daily as a solution for intraperitoneal or oral administration. Previous range-finding tolerability and efficacy studies in neurological models indicate that ibudilast is well-tolerated intraperitoneally at dose levels up to 15 mg/kg twice a day (bid) for multiple days. An appropriate amount of ibudilast is dissolved in 100% […] (PEG) 400 (Sigma) and then diluted down to a final concentration of 35% PEG400 in sterile saline (0.9% for injection). Drug stability and concentration are validated by HPLC/MS/MS.

## CC(C)C(=O)c1c(C(C)C)nn2ccccc12 [Ibudilast, 3-isobutyryl-2-isopropylpyrazolo[1,5-a]pyridine]
  tolerability, intraperitoneal: well-tolerated
